Broadly, the inhibition is the share of the control response that was lost under treatment.

In one assay the test system is HCT116 cells. Briefly: Whole cell cytotoxicity assay: Sulforhodamine B. Type of assay: cell-based. The following applies: Homo sapiens, HCT-116; 100 μM compound; 48 hours incubation with drug; Sulforhodamine B staining; read-out: % Inhibition of HCT116 cell growth @ 100 μM. The procedure:
[The source words this procedure for another cell line and reports this cell line under the same test.] The following procedure can be found on the Developmental Therapeutics Program NCl/NIH web site at http://dtp.nci.nih.gov/brancehes/btb/ivclsp.html. • 1. Human tumor cell lines of HT29, A549 and MCF7 are grown in DMEM containing 10% fetal bovine serum and 2 mM L-glutamine. Cells are plated in a 96 well plate at a density of 5000 cells per well in 100 μL of growth medium and incubated at 37° C., 5% CO2, for 24 hours prior to the addition of experimental compounds. • 2. Experimental drugs are solubilized in DMSO for a final concentration of 20 mM immediately prior to use. Drugs are further diluted in growth media for a total of nine drug concentrations and a growth control. At the 24 hour time point, one plate of cells is fixed in situ with TCA as a measurement of the cell population at time zero, or the time of drug addition. • 3. The plates are further incubated with drug for an additional 48 hours. • 4. The cells are fixed in situ by gently aspirating off the culture media and then adding 50 μL of ice cold 10% TCA per well and incubated at 4° C. for 60 minutes. The plates are washed with tap water five times and allowed to air dry for 5 minute. • 5. 50 μL of a 0.4% (w/v) Sulforhodamine B solution in 1% (v/v) acetic acid is added per well and incubated for 30 minutes at room temperature. • 6. Following staining, plates are washed five times with 1% acetic acid to remove any unbound dye and then allowed to air dry for 5 minutes. • 7. Stain is solubilized with 100 μL of 10 mM Tris pH 10.5 per well and placed on an orbital rotator for 5 minutes. • 8. Absorbance is read at 570 nm.
(In SRB staining, fixed cells bind dye roughly in proportion to their protein.)

The next assay has as its system HDAC. Briefly: In vitro fluorescent histone deacetylase assay (Biomol HDAC fluorescent activity kit, HeLa cell nuclear extract). Type of assay: biochemical. The conditions noted are these: 100 μM compound; HeLa cell nuclear extract as source of HDAC activity; 50 μM substrate, 10 min at room temperature. As to the method:
Histone deacetylase (HDAC) activity assays were performed using the HDAC fluorescent activity assay/drug discovery kit (Biomol Research Laboratories, Plymouth Meeting, Pa.) essentially according to the manufacturer's instructions. The included HeLa cell nuclear extract, which contains a mosaic of HDAC enzymes and other nuclear factors, was used as the source of HDAC activity. The final substrate concentration in the assay mixture was 50 μM. The reaction was allowed to proceed for 10 min at room temperature before stopping the reaction. Test compounds were prepared as 20 mM stock solutions in DMSO (Molecular Biology grade, Sigma-Aldrich Co., St. Louis, Mo.) and stored at −70° C. Serial dilutions of test compounds were prepared in assay buffer immediately prior to testing. DMSO was determined in a separate trial to have no significant effect on the activity of this assay at concentrations up to 5%; the final DMSO concentration in the wells was no more than 2% and therefore DMSO effects were safely neglected. Assays were performed in white polystyrene 96-well half-area assay plates (Corning, Corning, N.Y.) and measured on a Wallace 1420 fluorescent plate reader (Wallac Oy, Turku, Finland) with an excitation wavelength of 355 nm, an emission wavelength of 460 nm, and a 1 sec signal averaging time.

SMILES strings stand for the structures.

As to `O=C(NO)c1cnc(N2CCc3c(sc4ccccc34)C2)nc1` [Example 118, 2-(3,4-dihydro[1]benzothieno[2,3-c]pyridin-2(1H)-yl)-N-hydroxypyrimidine-5-carboxamide], the inhibition at 100 µM with HCT116 cells was found to be 98.9%. Also, the “% Inhibition of HDAC @ 100 μM” value in the assay on HDAC was found to be 99.7%.
As to `O=C(NO)c1cnc(N2CCc3[nH]c4ccc(-c5cccs5)cc4c3C2)nc1` [Example 60, N-hydroxy-2-{8-[thien-2-yl]-1,3,4,5-tetrahydro-2H-pyrido[4,3-b]indol-2-yl}pyrimidine-5-carboxamide], the inhibition at 100 µM in the assay with HCT116 cells stood at 99%. Also, in the assay on HDAC, the “% Inhibition of HDAC @ 100 μM” value is recorded as 100%.
Consider `CSc1cccc(-c2ccc3[nH]c4c(c3c2)CN(c2ncc(C(=O)NO)cn2)CC4)c1` [Example 49, N-hydroxy-2-{8-[3-(methylthio)phenyl]-1,3,4,5-tetrahydro-2H-pyrido[4,3-b]indol-2-yl}pyrimidine-5-carboxamide], for which, in the assay with HCT116 cells, the inhibition at 100 µM was determined as 99.3%. Also, in the assay on HDAC, the “% Inhibition of HDAC @ 100 μM” value came out at 99.9%.
Regarding `O=C(NO)c1cnc(N2CCc3c(n(CN4CCCC4)c4ccccc34)C2)nc1` [Example 30, N-hydroxy-2-{9-[2-pyrrolidin-1-ylmethyl]-1,3,4,9-tetrahydro-2H-b-carbolin-2-yl}pyrimidine-5-carboxamide], in the assay on HCT116 cells, the inhibition at 100 µM worked out at 96.8%. The “% Inhibition of HDAC @ 100 μM” value in the assay with HDAC is on record as 98.1%.
`O=C(NO)c1cnc(N2CCc3[nH]c4ccc(-c5cncnc5)cc4c3C2)nc1` [Example 51, N-hydroxy-2-{8-(pyrimidin-5-yl)-1,3,4,5-tetrahydro-2H-pyrido[4,3-b]indol-2-yl}pyrimidine-5-carboxamide]: in the assay on HCT116 cells, the inhibition at 100 µM was 98.7%. Also, the “% Inhibition of HDAC @ 100 μM” value in the assay with HDAC is recorded as 99.8%.
On to `CN1CCN(Cc2ccc(-c3ccc4[nH]c5c(c4c3)CCN(c3ncc(C(=O)NO)cn3)C5)cc2)CC1` [Example 72, N-hydroxy-2-{6-[4-((4-methylpiperazin-1-yl)methyl)phenyl]-1,3,4,9-tetrahydro-2H-b-carbolin-2-yl}pyrimidine-5-carboxamide], for which the inhibition at 100 µM with HCT116 cells worked out at 95.6%. Also, the “% Inhibition of HDAC @ 100 μM” value in the assay on HDAC is reported as 99.8%.
Taken in the same sequence, the figures for `CC(=O)N1CCN(Cc2cccc(-c3ccc4[nH]c5c(c4c3)CN(c3ncc(C(=O)NO)cn3)CC5)c2)CC1` [Example 101, N-hydroxy-2-{8-[3-((4-acetylpiperazin-1-yl)methyl)phenyl]-1,3,4,5-tetrahydro-2H-pyrido[4,3-b]indol-2-yl}pyrimidine-5-carboxamide] were 97.9% and 100%.
As for `O=C(NO)c1cnc(N2CCc3[nH]c4ccc(C(F)(F)F)cc4c3C2)nc1` [Example 55, N-hydroxy-2-(8-trifluoromethyl-1,3,4,5-tetrahydro-2H-pyrido[4,3-b]indol-2-yl)pyrimidine-5-carboxamide], in the assay on HCT116 cells, the inhibition at 100 µM came to 99.1%. Besides, the “% Inhibition of HDAC @ 100 μM” value in the assay on HDAC is 99.3%.
Taken in the same sequence, the figures for `O=C(NO)c1cnc(N2CCc3c(n(Cc4ccccc4)c4ccccc34)C2)nc1` [Example 28, N-hydroxy-2-(9-benzyl-1,3,4,9-tetrahydro-2H-b-carbolin-2-yl)pyrimidine-5-carboxamide] were 98.7% and 95.2%.
As for `Cc1cc2c3c([nH]c2cc1Cl)CCN(c1ncc(C(=O)NO)cn1)C3` [Example 34, N-hydroxy-2-(7-chloro-8-methyl-1,3,4,5-tetrahydro-2H-pyrido[4,3-b]indol-2-yl)pyrimidine-5-carboxamide], the inhibition at 100 µM in the assay with HCT116 cells is 99.3%. Further, the “% Inhibition of HDAC @ 100 μM” value with HDAC amounted to 99.1%.
Taken in the same sequence, the figures for `O=C(NO)c1cnc(N2CCc3[nH]c4ccc(Cl)cc4c3C2)nc1` [Example 14, 2-(8-chloro-1,3,4,5-tetrahydro-2H-pyrido[4,3-b]indol-2-yl)-N-hydroxypyrimidine-5-carboxamide] were 98.1% and 99.9%.
Taken in the same sequence, the figures for `COc1cc2c(cc1OC)CN(c1ncc(C(=O)NO)cn1)CC2` [Example 11, 2-(6,7-dimethoxy-3,4-dihydroisoquinolin-2(1H)-yl)-N-hydroxypyrimidine-5-carboxamide] were 99% and 99.8%.
In the case of `O=C(NO)c1cnc(N2CCc3c([nH]c4ccc(OCc5ccccc5)cc34)C2)nc1` [Example 64, N-hydroxy-2-(6-benzyloxy-1,3,4,9-tetrahydro-2H-b-carbolin-2-yl)pyrimidine-5-carboxamide], in the assay on HCT116 cells, the inhibition at 100 µM turned out to be 98.7%. The “% Inhibition of HDAC @ 100 μM” value in the assay on HDAC was found to be 99.9%.
Taken in the same sequence, the figures for `COc1ccc2[nH]c3c(c2c1)CCN(c1ncc(C(=O)NO)cn1)C3` [Example 10, N-hydroxy-2-(6-methoxy-1,3,4,9-tetrahydro-2H-b-carbolin-2-yl)pyrimidine-5-carboxamide] were 98.4% and 99.5%.
For the compound `O=C(NO)c1cnc(N2CCc3c(n(CCN4CCOCC4)c4ccccc34)C2)nc1` [Example 25, N-hydroxy-2-[9-(2-morpholin-4-ylethyl)-1,3,4,9-tetrahydro-2H-b-carbolin-2-yl]pyrimidine-5-carboxamide], the inhibition at 100 µM with HCT116 cells was found to be 94%. For the same compound, the “% Inhibition of HDAC @ 100 μM” value in the assay on HDAC is on record as 98%.
Taken in the same sequence, the figures for `O=C(NO)c1cnc(N2CCc3c(n(S(=O)(=O)c4ccccc4)c4ccccc34)C2)nc1` [Example 26, N-hydroxy-2-[9-(phenylsulfonyl)-1,3,4,9-tetrahydro-2H-b-carbolin-2-yl]pyrimidine-5-carboxamide] were 99% and 98.9%.
Taken in the same sequence, the figures for `Cc1ccc2c3c([nH]c2c1)CCN(c1ncc(C(=O)NO)cn1)C3` [Example 36, N-hydroxy-2-(7-methyl-1,3,4,5-tetrahydro-2H-pyrido[4,3-b]indol-2-yl)pyrimidine-5-carboxamide] were 98.3% and 99.8%.
In the case of `COc1ccc2c(c1)CN(c1ncc(C(=O)NO)cn1)CC2` [Example 31, 2-(7-methoxy-3,4,dihydroisoquinolin-2(1H)-yl)-N-hydroxypyrimidine-5-carboxamide], the inhibition at 100 µM in the assay with HCT116 cells is 99.5%. Moreover, the “% Inhibition of HDAC @ 100 μM” value in the assay on HDAC turned out to be 100%.
`CN(C)c1ccc(-c2ccc3[nH]c4c(c3c2)CN(c2ncc(C(=O)NO)cn2)CC4)cc1` [Example 48, N-hydroxy-2-{8-[4-dimethylaminophenyl]-1,3,4,5-tetrahydro-2H-pyrido[4,3-b]indol-2-yl}pyrimidine-5-carboxamide]: in the assay on HCT116 cells, the inhibition at 100 µM was 97.8%. The “% Inhibition of HDAC @ 100 μM” value with HDAC worked out at 99.7%.
As for `CN1CCN(Cc2ccc3[nH]c4c(c3c2)CN(c2ncc(C(=O)NO)cn2)CC4)CC1` [Example 123, N-hydroxy-2-{8-[(4-methylpiperazin-1-yl)methyl]-1,3,4,5-tetrahydro-2H-pyrido[4,3-b]indol-2-yl}pyrimidine-5-carboxamide], the inhibition at 100 µM in the assay on HCT116 cells was found to be 97%. For the same compound, the “% Inhibition of HDAC @ 100 μM” value in the assay on HDAC was found to be 100%.
For `O=C(NO)c1cnc(N2CCc3c([nH]c4cc(F)ccc34)C2)nc1` [Example 62, N-hydroxy-2-(7-fluoro-1,3,4,9-tetrahydro-2H-b-carbolin-2-yl)pyrimidine-5-carboxamide], in that order: 96.2% and 99.9%.
As for `O=C(NO)c1cnc(N2CCc3[nH]c4ccc(-c5ccc[nH]5)cc4c3C2)nc1` [Example 53, N-hydroxy-2-{8-[1H-pyrrol-2-yl]-1,3,4,5-tetrahydro-2H-pyrido[4,3-b]indol-2-yl}pyrimidine-5-carboxamide], the inhibition at 100 µM with HCT116 cells is 96.4%. The “% Inhibition of HDAC @ 100 μM” value in the assay on HDAC was 100%.
Taken in the same sequence, the figures for `O=C(NO)c1cnc(N2CCc3[nH]c4ccc(-c5cccc(CN(CCO)CCO)c5)cc4c3C2)nc1` [Example 95, N-hydroxy-2-{8-[3-(N,N-di(2-hydroxyethyl)aminomethyl)phenyl]-1,3,4,5-tetrahydro-2H-pyrido[4,3-b]indol-2-yl}pyrimidine-5-carboxamide] were 98.2% and 100%.

Values taken from patent US7772245B2, “Inhibitors of histone deacetylase” (Miikana Therapeutics, Inc., priority 2005, dated 2010).
